Experiment [1] deals with Mus musculus. Kind of experiment: Inhibition of caspase3 in icv dosed mouse middle cerebral artery occlusion induced ischemic injury model after 3 hrs by Western blot method drug administered before occlusion. Format: functional, organism-based.
Experiment [2] deals with Mus musculus. The experiment is described as follows: Inhibition of necroptosis in icv dosed mouse middle cerebral artery occlusion induced ischemic injury model assessed as reduction of infarct volume drug administered 6 hrs postocclusion. It is filed as functional, organism-based.
Experiment [3] is described as follows: Inhibition of death receptor signaling mediated necroptotic cell death in human Jurkat cell deficient in FADD assessed as cell viability after 30 hrs by ATP based viability assay in presence of TNFalpha.
Experiment [4] has as its system Mus musculus. The experiment is described as follows: Inhibition of necroptosis in mouse middle cerebral artery occlusion induced ischemic injury model assessed as reduction of infarct volume at 2-4 mM, icv before occlusion. Format: functional, organism-based.
Experiment [5] concerns Mus musculus. Kind of experiment: Inhibition of necroptosis in mouse middle cerebral artery occlusion induced ischemic injury model assessed as reduction of infarct volume at 2-4 mM, icv after occlusion. Format: functional, organism-based.
The test system of experiment [6] is Mus musculus. Kind of experiment: Inhibition of necroptosis in icv dosed mouse middle cerebral artery occlusion induced ischemic injury model assessed as improvement in neurological score drug administration before occlusion. Format: functional, organism-based.
The subject of experiment [7] is Mus musculus. The experiment is described as follows: Inhibition of necroptosis in icv dosed mouse middle cerebral artery occlusion induced ischemic injury model assessed as improvement in neurological score drug administration after occlusion. It is filed as functional, organism-based.
Experiment [8] relates to Mus musculus. The experiment is described as follows: Inhibition of necroptosis in icv dosed mouse middle cerebral artery occlusion induced ischemic injury model assessed as reduction of infarct volume drug administered 5 mins preocclusion. It is filed as functional, organism-based.
Experiment [9] has as its system Mus musculus. The experiment is described as follows: Inhibition of necroptosis in icv dosed mouse middle cerebral artery occlusion induced ischemic injury model assessed as reduction of infarct volume drug administered 2 hrs postocclusion. Format: functional, organism-based.
For experiment [10], the system named is Mus musculus. The experiment is described as follows: Inhibition of necroptosis in icv dosed mouse middle cerebral artery occlusion induced ischemic injury model assessed as induction of LC3-II after 5 hrs by Western blot method. It is filed as functional, organism-based. For orientation: Immunoblotting shows a protein as a band on a membrane.
Experiment [11] relates to Mus musculus. Kind of experiment: Inhibition of necroptosis in icv dosed mouse middle cerebral artery occlusion induced ischemic injury model assessed as induction of LC3-II after 8 hrs by Western blot method. Format: functional, organism-based.
In experiment [12] the test system is Mus musculus. The experiment is described as follows: Inhibition of necroptosis in icv dosed mouse middle cerebral artery occlusion induced ischemic injury model assessed as induction of LC3-II after 26 hrs by Western blot method. Format: functional, organism-based.
The subject of experiment [13] is Mus musculus. Kind of experiment: Inhibition of necroptosis in icv dosed mouse middle cerebral artery occlusion induced ischemic injury model assessed as induction of LC3-II by Western blot method drug administered 4 hrs postocclusion. Format: functional, organism-based.
Experiment [14] has as its system Mus musculus. The experiment is described as follows: Inhibition of necroptosis in icv dosed mouse middle cerebral artery occlusion induced ischemic injury model assessed as induction of LC3-II by Western blot method drug administered 6hrs postocclusion. Format: functional, organism-based.
Experiment [15] deals with Mus musculus. The experiment is described as follows: Inhibition of necroptosis in icv dosed mouse middle cerebral artery occlusion induced ischemic injury model assessed as induction of LC3-II by Western blot method drug administered 8 hrs postocclusion. Format: functional, organism-based.
The next experiment relates to Jurkat. Kind of experiment: Ratio of compound IC50 to Nec-1 IC50 for human jurkat cells. It is filed as functional.
In experiment [16] the test system is Mus musculus. Kind of experiment: Inhibition of necroptosis in icv dosed mouse middle cerebral artery occlusion induced ischemic injury model assessed as reduction of infarct volume. It is filed as functional, organism-based.
Experiment [17] deals with Mus musculus. Kind of experiment: Inhibition of necroptosis in icv dosed mouse middle cerebral artery occlusion induced ischemic injury model assessed as reduction of infarct volume drug administered 4 hrs postocclusion. It is filed as functional, organism-based.

Active and inactive are the calls of the source. No cut-off for these calls is given here. Residues, ends and D or L forms follow the SMILES beside them. *: point of attachment. Cbz = O=C(OCc1ccccc1)*; CH2F = FC*

For the compound `CC(C)[C@H](NC(=O)OCc1ccccc1)C(=O)N[C@@H](C)C(=O)N[C@@H](CC(=O)O)C(=O)CF` (Cbz-Val-Ala-Asp-CH2F), the inhibition result in the experiment on Mus musculus [1] was “Active”. Further, the inhibition entry in the experiment on Mus musculus [2] was “inactive”.

As to `CN1C(=O)C(Cc2c[nH]c3c(Cl)cccc23)NC1=S` (configuration not stated), the IC50 – broadly, the point on the concentration scale where inhibition reaches its midpoint – in experiment [3] is 182 nM. In addition, the inhibition entry with Mus musculus [4], in the experiment on Mus musculus [5], in the experiment on Mus musculus [6] and in the experiment with Mus musculus [7] was “Dose-dependent effect” throughout. Moreover, the inhibition entry with Mus musculus [1] was “inactive”. The inhibition result with Mus musculus [2], in the experiment with Mus musculus [8] and in the experiment with Mus musculus [9] was “Active” in each case. Moreover, the outcome with Mus musculus [10], in the experiment with Mus musculus [11], in the experiment with Mus musculus [12], with Mus musculus [13], in the experiment on Mus musculus [14] and with Mus musculus [15] was Active. Also, the “fold change (FC)” value in the experiment on Jurkat was found to be 2.7.

As for `O=C1NC(=S)NC1Cc1c[nH]c2ccccc12` (configuration not stated), the inhibition entry in the experiment with Mus musculus [16] is “inactive”.

For `CN1C(=O)NC(Cc2c[nH]c3c(Cl)cccc23)C1=O` (configuration not stated), the IC50 in experiment [3] worked out at 206 nM. In addition, the inhibition entry with Mus musculus [17] and in the experiment with Mus musculus [2] was “Active” each time.

The record behind these values is ChEMBL document CHEMBL1255230, “Chemical inhibitor of nonapoptotic cell death with therapeutic potential for ischemic brain injury” (Nat Chem Biol, 2005).
